Measured values published in the supplement of paper PMC4862054.

Tests used:
Conditions in all cases: incubation time: 72 h
[1] = system: MCF-10A; assay: normalised response (% of control), CellTox Green; higher = less cell death (100 = DMSO, 0 = benzethonium chloride kill control)
Outline: (§1)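 Each entry is the normalised signal at a single concentration within a series. The series comprised 5 concentrations in 10-fold steps over a compound-specific 10,000-fold range, placed in 384-well plates into which breast cancer cell lines were seeded as 20 µl suspension and incubated 72 h. CellTox Green (485/520 nm) fluorescence and then CellTiter-Glo luminescence were read, with signals normalised per plate to 0.1 % DMSO (100) and a positive kill control (0).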

[2] = system: CAL-85-1; assay: as above
Outline: as §1

[3] = system: MDA-MB-468; assay: as above
Outline: as §1

[4] = system: HCC1937; assay: as above
Outline: as §1

[5] = system: BT-549; assay: as above
Outline: as §1

[6] = system: MDA-MB-436; assay: as above
Outline: as §1

[7] = system: HCC1599; assay: as above
Outline: as §1

[8] = system: CAL-120; assay: as above
Outline: as §1

[9] = system: MDA-MB-231; assay: as above
Outline: as §1

[10] = system: Hs578T; assay: as above
Outline: as §1

[11] = system: BT-474; assay: as above
Outline: as §1

[12] = system: MDA-MB-453; assay: as above
Outline: as §1

[13] = system: HCC1143; assay: as above
Outline: as §1

[14] = system: HDQ-P1; assay: as above
Outline: as §1

[15] = system: MFM-223; assay: as above
Outline: as §1

[16] = system: DU-4475; assay: as above
Outline: as §1

[17] = system: CAL-148; assay: as above
Outline: as §1

[18] = system: CAL-51; assay: as above
Outline: as §1

[19] = system: MCF-10A; assay: normalised response (% of control), CellTiter-Glo; higher = more viable cells (100 = DMSO, 0 = benzethonium chloride kill control)
Experimental: (§2)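 DSRT, 72 h incubation, CellTox Green / CellTiter-Glo readout. Signal is normalised to DMSO and benzethonium chloride controls. Value is the normalised response at dose 3.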

[20] = system: CAL-85-1; assay: as above
Experimental: as §2

[21] = system: MDA-MB-468; assay: as above
Experimental: as §2

[22] = system: HCC1937; assay: as above
Experimental: as §2

[23] = system: BT-549; assay: as above
Experimental: as §2

[24] = system: MDA-MB-436; assay: as above
Experimental: as §2

[25] = system: HCC1599; assay: as above
Experimental: as §2

[26] = system: CAL-120; assay: as above
Experimental: as §2

[27] = system: MDA-MB-231; assay: as above
Experimental: as §2

[28] = system: SK-BR-3; assay: as above
Experimental: as §2

[29] = system: Hs578T; assay: as above
Experimental: as §2

[30] = system: BT-474; assay: as above
Experimental: as §2

[31] = system: MDA-MB-453; assay: as above
Experimental: as §2

[32] = system: HCC1143; assay: as above
Experimental: as §2

[33] = system: HDQ-P1; assay: as above
Experimental: as §2

[34] = system: MFM-223; assay: as above
Experimental: as §2

[35] = system: DU-4475; assay: as above
Experimental: as §2

[36] = system: CAL-148; assay: as above
Experimental: as §2

[37] = system: CAL-51; assay: as above
Experimental: as §2

Compound	normalised response [1]	normalised response [2]	normalised response [3]	normalised response [4]	normalised response [5]	normalised response [6]	normalised response [7]	normalised response [8]	normalised response [9]	normalised response [10]	normalised response [11]	normalised response [12]	normalised response [13]	normalised response [14]	normalised response [15]	normalised response [16]	normalised response [17]	normalised response [18]	normalised response [19]	normalised response [20]	normalised response [21]	normalised response [22]	normalised response [23]	normalised response [24]	normalised response [25]	normalised response [26]	normalised response [27]	normalised response [28]	normalised response [29]	normalised response [30]	normalised response [31]	normalised response [32]	normalised response [33]	normalised response [34]	normalised response [35]	normalised response [36]	normalised response [37]
CC(O)(CS(=O)(=O)c1ccc(F)cc1)C(=O)Nc1ccc(C#N)c(C(F)(F)F)c1 (stereo not drawn) [Bicalutamide] (100 nM)	85.1%	95.9%	131%	106%	85%	108%	116%	99.5%	110%	90.6%	102%	108%	107%	115%	89.8%	100%	102%	98.3%	106%	98.9%	105%	100%	102%	107%	103%	105%	117%	113%	96.7%	108%	114%	103%	100%	107%	105%	110%	80.7%
O=C(O)CNC(=O)c1c(O)c2ccccc2n(Cc2ccccc2)c1=O [IOX-2] (500 nM)	95.2%	112%	115%	95.6%	97.3%	98.3%	99.3%	97.7%	110%	99.3%	103%	104%	83.3%	100%	101%	111%	73.2%	73.4%	104%	99%	90.4%	97.2%	94.7%	94.4%	98.5%	103%	100%	96.3%	99.4%	99.2%	105%	98.4%	102%	97.1%	101%	92.9%	61.5%
CN(C)C(=N)NC(=N)N [Metformin] (1000 nM)	-3.22%	97.9%	61%	93.4%	70.4%	71.8%	95.2%	96.5%	63.5%	105%	92%	91%	85.4%	70.7%	101%	91.6%	95.7%	71.1%	77%	97.7%	90.3%	93.2%	103%	108%	95.9%	104%	94.1%	81.9%	102%	96.3%	84.3%	102%	98%	83.2%	88.4%	102%	65.9%
C/C(=C\c1csc(C)n1)[C@@H]1C[C@@H]2O[C@]2(C)CCC[C@H](C)[C@H](O)[C@@H](C)C(=O)C(C)(C)[C@@H](O)CC(=O)N1 [Ixabepilone] (10 nM)	84.4%	99%	123%	107%	82.4%	86.6%	101%	102%	102%	84%	98.7%	93.6%	80.8%	101%	95.7%	104%	94.7%	102%	108%	97.5%	93.7%	95.4%	102%	106%	95.2%	102%	98.6%	113%	107%	100%	101%	102%	102%	105%	104%	102%	86%
